Laboratory results from PubChem BioAssay AID1963972 (Molecular Pharmacology Branch, DTP, NCI, 2024).

Test system: 945468-187-T-J2-PDC spheroids viability
Experiment: Anticancer human tumor 945468-187-T-J2-PDC patient-derived rectal carcinoma cell line growth inhibition [PI3K]
Conditions: spheroids with HUVEC and MSC; for IC50: curve of first compound; for viability, T/C: stronger effect = lower value
Excerpt: Combinatorial screen of targeted agents with the PI3K inhibitors inavolisib, alpelisib, duvelisib, and copanlisib in multi-cell type tumor spheroids
A high-throughput screen of multi-cell type tumor spheroids was designed to identify active combinations of targeted small molecules and PI3K pathway inhibitors. Complex spheroids include a stromal component modeled by human endothelial cells (HUVEC) and fibroblasts modeled by human mesenchymal stem cells (MSCs). The concentration ranges selected for each drug and investigational agent were based upon clinically achievable concentrations if the clinical Cmax of the agent was known.
Compounds. The drugs and investigational agents: inavolisib (NSC800729), alpelisib (NSC765974), duvelisib (NSC772469), copanlisib (NSC816437), ipatasertib (NSC767898), afuresertib (NSC778305), talazoparib (NSC767125), sapanisertib (NSC764658), selumetinib (NSC741078), tovorafenib (DAY101, NSC766906), vemurafenib (NSC761431), ravoxertinib (NSC781343), sotorasib (NSC818433), MRTX1133 (NSC 836407), abemaciclib (NSC 768073), palbociclib (NSC758247), venetoclax (NSC 766270), SY5609 (NSC837396), enzalutamide (NSC755605), and darolutamide (NSC825331), were obtained from the National Cancer Institute (NCI) Developmental Therapeutics Program Chemical Repository. The FDA-approved anticancer drug set is available from the NCI Developmental Therapeutics Program. […] The stock solutions were prepared in dimethyl sulfoxide (DMSO, Sigma-Aldrich, St. Louis, MO, cat. D2650) at 800-fold the tested concentration and stored at -70 degrees C prior to their use. All drugs and investigational agents were tested over a range starting from a high concentration at or near the clinical Cmax and decreasing in half-log increments. If the clinical Cmax for an agent had not been determined, the highest concentration tested was 10 microM.
Cell Culture. All cells were maintained in an incubator at 37 degrees C and 5% CO2 with 95% humidity. The PDC lines were cultured according to standard operating procedures established by the NCI PDMR (https://pdmr.cancer.gov/sops/default.htm). All PDCs were thawed and cultured in Matrigel-coated flasks prepared with a working solution of 1X Ham's F-12 nutrient mix, without supplementation (Invitrogen, Waltham, MA, cat. 11765054), 100 U/mL penicillin-streptomycin (Invitrogen, cat. 15140122), and 2.5% Matrigel (Corning Inc., Corning, NY, cat. 354248) for the first three passages. The 354836-022-R-J1-PDC, 475296-252-R-J1-PDC, and 997726-040-R-J2-PDC lines were cultured in 6A media, which includes advanced DMEM/F-12 (Thermo Fisher Scientific, cat. 12634028), 10 mM HEPES (Thermo Fisher Scientific, cat. 15630080), 1X GlutaMAX supplement (Thermo Fisher Scientific, cat. 35050061), 0.1 mg/mL primocin (InvivoGen, San Diego, CA, cat. ant-pm-2), 10% defined fetal bovine serum, heat inactivated (HyClone Laboratories Inc., Logan, UT, cat. SH30070.03HI), 50% L-WRN conditioned media (ATCC, cat. CRL-3276), 1.25 mM N-Acetyl-L-cysteine (Sigma-Aldrich, cat. A9165), 10 mM nicotinamide (Sigma-Aldrich, cat. N0636), 1X B-27 supplement (Thermo Fisher Scientific, cat. 17504044), 1X N-2 supplement (Thermo Fisher Scientific, cat. 17502048), and 10 microM Y-27632 dihydrochloride (Tocris Bioscience, Bristol, United Kingdom, cat. 1254). The 624824-186-R-J2-PDC line was cultured in 6C/Colon 1B media, which includes all 6A media components plus 50 ng/mL human EGF recombinant protein (Thermo Fisher Scientific, cat. PHG0311). […]
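Further: spheroids exposed to compounds for seven days before reading.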

IC50 (second compound 0.00316 µM): > 100 nM | IC50 (second compound 0.01 µM): > 100 nM | IC50 (second compound 0.0316 µM): > 100 nM | IC50 (second compound 0.1 µM): > 100 nM | IC50 (second compound 0.316 µM): 75.4 nM | IC50 (second compound 1 µM): 26.7 nM
SMILES: CC(C)n1nc(-c2ccc3oc(N)nc3c2)c2c(N)ncnc21 + CC(Nc1ccc2c(c1)OCCn1cc(N3C(=O)OCC3C(F)F)nc1-2)C(N)=O
viability, T/C (second compound 0.00316 µM, first compound 0.000316 µM): 141% | viability, T/C (second compound 0.00316 µM, first compound 0.001 µM): 114% | viability, T/C (second compound 0.00316 µM, first compound 0.00316 µM): 115% | viability, T/C (second compound 0.00316 µM, first compound 0.01 µM): 89.4% | viability, T/C (second compound 0.00316 µM, first compound 0.0316 µM): 107% | viability, T/C (second compound 0.00316 µM, first compound 0.1 µM): 83.7% | viability, T/C (second compound 0.01 µM, first compound 0.000316 µM): 168% | viability, T/C (second compound 0.01 µM, first compound 0.001 µM): 101% | viability, T/C (second compound 0.01 µM, first compound 0.00316 µM): 108% | viability, T/C (second compound 0.01 µM, first compound 0.01 µM): 91% | viability, T/C (second compound 0.01 µM, first compound 0.0316 µM): 88.8% | viability, T/C (second compound 0.01 µM, first compound 0.1 µM): 71% | viability, T/C (second compound 0.0316 µM, first compound 0.000316 µM): 105% | viability, T/C (second compound 0.0316 µM, first compound 0.001 µM): 85.2% | viability, T/C (second compound 0.0316 µM, first compound 0.00316 µM): 109% | viability, T/C (second compound 0.0316 µM, first compound 0.01 µM): 106% | viability, T/C (second compound 0.0316 µM, first compound 0.0316 µM): 95.7% | viability, T/C (second compound 0.0316 µM, first compound 0.1 µM): 73.4% | viability, T/C (second compound 0.1 µM, first compound 0.000316 µM): 81% | viability, T/C (second compound 0.1 µM, first compound 0.001 µM): 112% | viability, T/C (second compound 0.1 µM, first compound 0.00316 µM): 108% | viability, T/C (second compound 0.1 µM, first compound 0.01 µM): 91.8% | viability, T/C (second compound 0.1 µM, first compound 0.0316 µM): 101% | viability, T/C (second compound 0.1 µM, first compound 0.1 µM): 61.4% | viability, T/C (second compound 0.316 µM, first compound 0.000316 µM): 84.6% | viability, T/C (second compound 0.316 µM, first compound 0.001 µM): 89.7% | viability, T/C (second compound 0.316 µM, first compound 0.00316 µM): 82.2% | viability, T/C (second compound 0.316 µM, first compound 0.01 µM): 81.5% | viability, T/C (second compound 0.316 µM, first compound 0.0316 µM): 75.5% | viability, T/C (second compound 0.316 µM, first compound 0.1 µM): 41.8% | viability, T/C (second compound 1 µM, first compound 0.000316 µM): 87.4% | viability, T/C (second compound 1 µM, first compound 0.001 µM): 103% | viability, T/C (second compound 1 µM, first compound 0.00316 µM): 75.5% | viability, T/C (second compound 1 µM, first compound 0.01 µM): 61.1% | viability, T/C (second compound 1 µM, first compound 0.0316 µM): 52.6% | viability, T/C (second compound 1 µM, first compound 0.1 µM): 29.4%
